Measurements taken from the NIST ThermoML archive (doi:10.1016/j.jct.2017.01.016).
± gives the expanded uncertainty stated by the source.

Test: xn = mol fraction of the nth substance listed
Settings: 101 kPa, Liquid; for viscosity: Capillary tube (Ostwald / Ubbelohde) method; for speed of sound: Frequency=3 MHz, Linear variable-path acoustic interferometer

C1COCCO1 [1,4-dioxane] + c1ccccc1
Settings | speed of sound [m/s] | viscosity [mPa·s]
293.15 K, x1 = 0.0713 | 1329.8 ± 1.7 | 0.6955 ± 0.015
293.15 K, x1 = 0.1403 | 1334.5 ± 1.7 | 0.7421 ± 0.015
293.15 K, x1 = 0.2123 | 1339.4 ± 1.7 | 0.7905 ± 0.017
293.15 K, x1 = 0.2809 | 1343.6 ± 1.7 | 0.8364 ± 0.017
293.15 K, x1 = 0.3528 | 1347.9 ± 1.7 | 0.8842 ± 0.018
293.15 K, x1 = 0.4195 | 1351.5 ± 1.7 | 0.9283 ± 0.019
293.15 K, x1 = 0.5037 | 1355.8 ± 1.7 | 0.9838 ± 0.021
293.15 K, x1 = 0.58 | 1359.2 ± 1.7 | 1.034 ± 0.022
293.15 K, x1 = 0.6504 | 1362.2 ± 1.7 | 1.08 ± 0.023
293.15 K, x1 = 0.7197 | 1364.2 ± 1.7 | 1.125 ± 0.023
293.15 K, x1 = 0.7822 | 1365.4 ± 1.7 | 1.165 ± 0.024
293.15 K, x1 = 0.8561 | 1366.9 ± 1.7 | 1.213 ± 0.025
293.15 K, x1 = 0.9287 | 1367.4 ± 1.7 | 1.26 ± 0.026
293.15 K, x1 = 1 | 1367.2 ± 1.7 | 1.306 ± 0.027
298.15 K, x1 = 0.0713 | 1304 ± 1.6 | 0.6485 ± 0.014
298.15 K, x1 = 0.1403 | 1308.1 ± 1.6 | 0.6905 ± 0.014
298.15 K, x1 = 0.2123 | 1312.5 ± 1.6 | 0.7339 ± 0.015
298.15 K, x1 = 0.2809 | 1316.5 ± 1.6 | 0.775 ± 0.016
298.15 K, x1 = 0.3528 | 1320.5 ± 1.7 | 0.8179 ± 0.017
298.15 K, x1 = 0.4195 | 1324 ± 1.7 | 0.8574 ± 0.018
298.15 K, x1 = 0.5037 | 1328.2 ± 1.7 | 0.907 ± 0.019
298.15 K, x1 = 0.58 | 1332 ± 1.7 | 0.9517 ± 0.02
298.15 K, x1 = 0.6504 | 1335.1 ± 1.7 | 0.9928 ± 0.021
298.15 K, x1 = 0.7197 | 1337.5 ± 1.7 | 1.033 ± 0.022
298.15 K, x1 = 0.7822 | 1339.8 ± 1.7 | 1.069 ± 0.022
298.15 K, x1 = 0.8561 | 1342 ± 1.7 | 1.112 ± 0.023
298.15 K, x1 = 0.9287 | 1343.7 ± 1.7 | 1.154 ± 0.024
298.15 K, x1 = 1 | 1344.7 ± 1.7 | 1.195 ± 0.025
303.15 K, x1 = 0.0713 | 1279.4 ± 1.6 | 0.6068 ± 0.013
303.15 K, x1 = 0.1403 | 1283 ± 1.6 | 0.6446 ± 0.013
303.15 K, x1 = 0.2123 | 1287 ± 1.6 | 0.6836 ± 0.014
303.15 K, x1 = 0.2809 | 1290.6 ± 1.6 | 0.7206 ± 0.015
303.15 K, x1 = 0.3528 | 1294.2 ± 1.6 | 0.7591 ± 0.016
303.15 K, x1 = 0.4195 | 1297.6 ± 1.6 | 0.7946 ± 0.017
303.15 K, x1 = 0.5037 | 1301.8 ± 1.6 | 0.839 ± 0.017
303.15 K, x1 = 0.58 | 1305.7 ± 1.6 | 0.879 ± 0.018
303.15 K, x1 = 0.6504 | 1309.2 ± 1.6 | 0.9157 ± 0.019
303.15 K, x1 = 0.7197 | 1312.3 ± 1.7 | 0.9517 ± 0.02
303.15 K, x1 = 0.7822 | 1315.1 ± 1.7 | 0.9841 ± 0.021
303.15 K, x1 = 0.8561 | 1318.2 ± 1.7 | 1.022 ± 0.021
303.15 K, x1 = 0.9287 | 1320.8 ± 1.7 | 1.059 ± 0.022
303.15 K, x1 = 1 | 1323.1 ± 1.7 | 1.096 ± 0.023
308.15 K, x1 = 0.0713 | 1255.4 ± 1.6 | 0.5686 ± 0.012
308.15 K, x1 = 0.1403 | 1258.7 ± 1.6 | 0.6033 ± 0.013
308.15 K, x1 = 0.2123 | 1262 ± 1.6 | 0.6392 ± 0.013
308.15 K, x1 = 0.2809 | 1265.1 ± 1.6 | 0.673 ± 0.014
308.15 K, x1 = 0.3528 | 1268.7 ± 1.6 | 0.7082 ± 0.015
308.15 K, x1 = 0.4195 | 1272 ± 1.6 | 0.7406 ± 0.015
308.15 K, x1 = 0.5037 | 1276.1 ± 1.6 | 0.7812 ± 0.016
308.15 K, x1 = 0.58 | 1280.2 ± 1.6 | 0.8176 ± 0.017
308.15 K, x1 = 0.6504 | 1284 ± 1.6 | 0.851 ± 0.018
308.15 K, x1 = 0.7197 | 1287.4 ± 1.6 | 0.8837 ± 0.018
308.15 K, x1 = 0.7822 | 1290.8 ± 1.6 | 0.9131 ± 0.019
308.15 K, x1 = 0.8561 | 1294.5 ± 1.6 | 0.9477 ± 0.02
308.15 K, x1 = 0.9287 | 1297.9 ± 1.6 | 0.9815 ± 0.02
308.15 K, x1 = 1 | 1301.2 ± 1.7 | 1.014 ± 0.021
313.15 K, x1 = 0.0713 | 1231.7 ± 1.6 | 0.532 ± 0.011
313.15 K, x1 = 0.1403 | 1234.3 ± 1.6 | 0.5644 ± 0.012
313.15 K, x1 = 0.2123 | 1237.2 ± 1.6 | 0.5979 ± 0.013
313.15 K, x1 = 0.2809 | 1240.5 ± 1.6 | 0.6294 ± 0.013
313.15 K, x1 = 0.3528 | 1244 ± 1.6 | 0.6621 ± 0.014
313.15 K, x1 = 0.4195 | 1247.1 ± 1.6 | 0.6921 ± 0.015
313.15 K, x1 = 0.5037 | 1251.3 ± 1.6 | 0.7297 ± 0.015
313.15 K, x1 = 0.58 | 1255.5 ± 1.6 | 0.7634 ± 0.016
313.15 K, x1 = 0.6504 | 1259.4 ± 1.6 | 0.7943 ± 0.017
313.15 K, x1 = 0.7197 | 1263.5 ± 1.6 | 0.8245 ± 0.017
313.15 K, x1 = 0.7822 | 1266.8 ± 1.6 | 0.8516 ± 0.018
313.15 K, x1 = 0.8561 | 1271.2 ± 1.6 | 0.8835 ± 0.018
313.15 K, x1 = 0.9287 | 1275.3 ± 1.6 | 0.9146 ± 0.019
313.15 K, x1 = 1 | 1279.7 ± 1.6 | 0.945 ± 0.02
318.15 K, x1 = 0.0713 | 1209.6 ± 1.6 | 0.4993 ± 0.01
318.15 K, x1 = 0.1403 | 1211.9 ± 1.6 | 0.5297 ± 0.011
318.15 K, x1 = 0.2123 | 1214.5 ± 1.6 | 0.5611 ± 0.012
318.15 K, x1 = 0.2809 | 1217.2 ± 1.6 | 0.5906 ± 0.012
318.15 K, x1 = 0.3528 | 1220.5 ± 1.6 | 0.6211 ± 0.013
318.15 K, x1 = 0.4195 | 1223.6 ± 1.6 | 0.6492 ± 0.014
318.15 K, x1 = 0.5037 | 1227.9 ± 1.6 | 0.6842 ± 0.014
318.15 K, x1 = 0.58 | 1232.1 ± 1.6 | 0.7156 ± 0.015
318.15 K, x1 = 0.6504 | 1236 ± 1.6 | 0.7443 ± 0.015
318.15 K, x1 = 0.7197 | 1240.1 ± 1.6 | 0.7724 ± 0.016
318.15 K, x1 = 0.7822 | 1243.9 ± 1.6 | 0.7975 ± 0.017
318.15 K, x1 = 0.8561 | 1248.8 ± 1.6 | 0.8271 ± 0.017
318.15 K, x1 = 0.9287 | 1253.6 ± 1.6 | 0.8559 ± 0.018
318.15 K, x1 = 1 | 1258.6 ± 1.6 | 0.884 ± 0.018
